Measured values reported in ChEMBL document CHEMBL1201861, “Genomics of Drug Sensitity in Cancer screening data, Wellcome Trust Sanger Institute”.

Assays:
Assay in all cases: cells
COLO-800 = assay type: functional, cell-based, Homo sapiens; conditions: Homo sapiens, COLO-800;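 note: growth inhibition of COLO-800 cells, read out with a cell viability assay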
Description: SANGER: Inhibition of human COLO-800 cell growth in a cell viability assay.

COR-L88 = assay type: functional, cell-based, Homo sapiens; conditions: Homo sapiens, COR-L88;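 note: growth inhibition of COR-L88 cells, read out with a cell viability assay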
Description: SANGER: Inhibition of human COR-L88 cell growth in a cell viability assay.

CTV-1 = assay type: functional, cell-based, Homo sapiens; conditions: Homo sapiens, CTV-1;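 note: growth inhibition of the cell line, read out with a cell viability assay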
Description: SANGER: Inhibition of human CTV-1 cell growth in a cell viability assay.

D-502MG = assay type: functional, cell-based, Homo sapiens; conditions: Homo sapiens, D-502MG
Description: SANGER: Inhibition of human D-502MG cell growth in a cell viability assay.

EM-2 = assay type: functional, cell-based, Homo sapiens; conditions: Homo sapiens, EM-2;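 note: growth inhibition of EM-2 cells, read out with a cell viability assay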
Description: SANGER: Inhibition of human EM-2 cell growth in a cell viability assay.

ETK-1 = assay type: functional, cell-based, Homo sapiens; conditions: Homo sapiens, ETK-1;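 note: growth inhibition of human ETK-1 cells, read out with a cell viability assay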
Description: SANGER: Inhibition of human ETK-1 cell growth in a cell viability assay.

EW-18 = assay type: functional, cell-based, Homo sapiens; conditions: Homo sapiens, EW-18; read-out: IC50;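 note: growth inhibition of EW-18 cells, read out by a cell viability assay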
Description: SANGER: Inhibition of human EW-18 cell growth in a cell viability assay.

GAK = assay type: functional, cell-based, Homo sapiens; conditions: Homo sapiens, GAK;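 note: cell growth inhibition read out by a cell viability assay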
Description: SANGER: Inhibition of human GAK cell growth in a cell viability assay.

GI-1 = assay type: functional, cell-based, Homo sapiens; conditions: Homo sapiens, GI-1;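 note: growth inhibition of human GI-1 cells, measured with a cell viability readout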
Description: SANGER: Inhibition of human GI-1 cell growth in a cell viability assay.

GI-ME-N = assay type: functional, cell-based, Homo sapiens; conditions: Homo sapiens, GI-ME-N;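 note: growth inhibition of human GI-ME-N cells, read out with a cell viability assay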
Description: SANGER: Inhibition of human GI-ME-N cell growth in a cell viability assay.

HCC1187 = assay type: functional, cell-based, Homo sapiens; conditions: Homo sapiens, HCC1187;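 note: growth inhibition of HCC1187 cells, read out with a cell viability assay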
Description: SANGER: Inhibition of human HCC1187 cell growth in a cell viability assay.

HCE-4 = assay type: functional, cell-based; conditions: Homo sapiens;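 note: cell viability assay measuring inhibition of growth in the human HCE-4 cell line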
Description: SANGER: Inhibition of human HCE-4 cell growth in a cell viability assay.

HCE-T = assay type: functional, cell-based, Homo sapiens; conditions: Homo sapiens, HCE-T;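 note: cell viability assay read-out, reporting inhibition of HCE-T cell growth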
Description: SANGER: Inhibition of human HCE-T cell growth in a cell viability assay.

HDLM-2 = assay type: functional, cell-based, Homo sapiens; conditions: Homo sapiens, HDLM-2;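 note: cell viability assay measuring suppression of HDLM-2 proliferation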
Description: SANGER: Inhibition of human HDLM-2 cell growth in a cell viability assay.

IA-LM = assay type: functional, cell-based; conditions: Homo sapiens;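 note: cell viability assay measuring growth inhibition of human IA-LM cells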
Description: SANGER: Inhibition of human IA-LM cell growth in a cell viability assay.

IST-SL1 = assay type: functional, cell-based, Homo sapiens; conditions: Homo sapiens, IST-SL1;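 note: growth inhibition of human IST-SL1 cells, read out with a cell viability assay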
Description: SANGER: Inhibition of human IST-SL1 cell growth in a cell viability assay.

J-RT3-T3-5 = assay type: functional, cell-based, Homo sapiens; conditions: Homo sapiens, J-RT3-T3-5;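 note: cell viability assay measuring growth inhibition of human J-RT3-T3-5 cells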
Description: SANGER: Inhibition of human J-RT3-T3-5 cell growth in a cell viability assay.

KG-1 = assay type: functional, cell-based, Homo sapiens; conditions: Homo sapiens, KG-1;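 note: growth inhibition of KG-1 cells, read out by a cell viability assay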
Description: SANGER: Inhibition of human KG-1 cell growth in a cell viability assay.

KGN = assay type: functional, cell-based, Homo sapiens; conditions: Homo sapiens, KGN;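 note: growth inhibition of KGN cells, read out with a cell viability assay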
Description: SANGER: Inhibition of human KGN cell growth in a cell viability assay.

KLE = assay type: functional, cell-based; conditions: Homo sapiens;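 note: growth inhibition of human KLE cells, read out with a cell viability assay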
Description: SANGER: Inhibition of human KLE cell growth in a cell viability assay.

KM12 = assay type: functional, cell-based, Homo sapiens; conditions: Homo sapiens, KM12;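 note: KM12 cell growth inhibition, read out with a cell viability assay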
Description: SANGER: Inhibition of human KM12 cell growth in a cell viability assay.

KU812 cell line = assay type: functional, cell-based, Homo sapiens; conditions: Homo sapiens, KU812;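 note: growth inhibition of KU812 cells, read out with a cell viability assay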
Description: SANGER: Inhibition of human KU812 cell growth in a cell viability assay.

KURAMOCHI = assay type: functional, cell-based, Homo sapiens; conditions: Homo sapiens, KURAMOCHI;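 note: growth inhibition of KURAMOCHI cells, read out with a cell viability assay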
Description: SANGER: Inhibition of human KURAMOCHI cell growth in a cell viability assay.

KY821 = assay type: functional, cell-based, Homo sapiens; conditions: Homo sapiens, KY821;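 note: growth inhibition of human KY821 cells, read out by a cell viability assay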
Description: SANGER: Inhibition of human KY821 cell growth in a cell viability assay.

LB2518-MEL = assay type: functional, cell-based; conditions: Homo sapiens;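 note: growth inhibition of human LB2518-MEL cells, measured with a cell viability assay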
Description: SANGER: Inhibition of human LB2518-MEL cell growth in a cell viability assay.

LXF-289 cell line = assay type: functional, cell-based; conditions: Homo sapiens
Description: SANGER: Inhibition of human LXF-289 cell growth in a cell viability assay.

MMAC-SF = assay type: functional, cell-based; conditions: Homo sapiens;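 note: growth inhibition of human MMAC-SF cells, read out with a cell viability assay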
Description: SANGER: Inhibition of human MMAC-SF cell growth in a cell viability assay.

MN-60 = assay type: functional, cell-based, Homo sapiens; conditions: Homo sapiens, MN-60;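 note: growth inhibition of the MN-60 cell line, determined with a cell viability assay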
Description: SANGER: Inhibition of human MN-60 cell growth in a cell viability assay.

MS-1 = assay type: functional, cell-based, Homo sapiens; conditions: Homo sapiens, MS-1;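 note: growth inhibition of MS-1 cells, read out by cell viability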
Description: SANGER: Inhibition of human MS-1 cell growth in a cell viability assay.

MZ7-mel = assay type: functional, cell-based, Homo sapiens; conditions: Homo sapiens, MZ7-mel;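 note: growth inhibition of human MZ7-mel cells, measured by a cell viability assay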
Description: SANGER: Inhibition of human MZ7-mel cell growth in a cell viability assay.

NB5 = assay type: functional, cell-based, Homo sapiens; conditions: Homo sapiens, NB5;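 note: growth inhibition of NB5 cells, read out as cell viability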
Description: SANGER: Inhibition of human NB5 cell growth in a cell viability assay.

NCI-H1355 = assay type: functional, cell-based, Homo sapiens; conditions: Homo sapiens, NCI-H1355;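 note: growth inhibition of human NCI-H1355 cells, read out by a cell viability assay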
Description: SANGER: Inhibition of human NCI-H1355 cell growth in a cell viability assay.

NCI-H226 = assay type: functional, cell-based, Homo sapiens; conditions: Homo sapiens, NCI-H226;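 note: cell viability read-out used to gauge growth inhibition of the cells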
Description: SANGER: Inhibition of human NCI-H226 cell growth in a cell viability assay.

NCI-N87 = assay type: functional, cell-based; conditions: Homo sapiens;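 note: growth inhibition of human NCI-N87 cells, read out with a cell viability assay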
Description: SANGER: Inhibition of human NCI-N87 cell growth in a cell viability assay.

NTERA-2-cl-D1 = assay type: functional, cell-based, Homo sapiens; conditions: Homo sapiens, NTERA-2-cl-D1;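 note: inhibition of cell growth, measured with a cell viability assay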
Description: SANGER: Inhibition of human NTERA-S-cl-D1 cell growth in a cell viability assay.

OCI-AML2 = assay type: functional, cell-based, Homo sapiens; conditions: Homo sapiens, OCI-AML2;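 note: growth inhibition of OCI-AML2 cells, read out with a cell viability assay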
Description: SANGER: Inhibition of human OCI-AML2 cell growth in a cell viability assay.

OCUB-M = assay type: functional, cell-based; conditions: Homo sapiens;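 note: growth inhibition of the cancer cell line, read out through a cell viability assay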
Description: SANGER: Inhibition of human OCUB-M cell growth in a cell viability assay.

OVCAR-4 = assay type: functional, cell-based, Homo sapiens; conditions: Homo sapiens, OVCAR-4;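 note: growth inhibition of human OVCAR-4 cells, measured with a cell viability assay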
Description: SANGER: Inhibition of human OVCAR-4 cell growth in a cell viability assay.

P31-FUJ = assay type: functional, cell-based, Homo sapiens; conditions: Homo sapiens, P31-FUJ;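 note: growth inhibition of P31-FUJ cells, read out with a viability assay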
Description: SANGER: Inhibition of human P31-FUJ cell growth in a cell viability assay.

PC-3 = assay type: functional, cell-based; conditions: Homo sapiens;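 note: cell viability assay measuring growth inhibition of PC-3 cells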
Description: SANGER: Inhibition of human PC-3 cell growth in a cell viability assay.

QIMR-WIL = assay type: functional, cell-based, Homo sapiens; conditions: Homo sapiens, QIMR-WIL;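 note: growth inhibition of QIMR-WIL cells, read out with a cell viability assay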
Description: SANGER: Inhibition of human QIMR-WIL cell growth in a cell viability assay.

RXF 393 = assay type: functional, cell-based, Homo sapiens; conditions: Homo sapiens, RXF 393;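 note: growth inhibition of human RXF 393 cells, read out with a cell viability assay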
Description: SANGER: Inhibition of human RXF393 cell growth in a cell viability assay.

Ramos-2G6-4C10 = assay type: functional, cell-based, Homo sapiens; conditions: Homo sapiens, Ramos-2G6-4C10;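 note: growth inhibition of the cell line, measured by a cell viability read-out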
Description: SANGER: Inhibition of human Ramos-2G6-4C10 cell growth in a cell viability assay.

SH-4 = assay type: functional, cell-based; conditions: Homo sapiens;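 note: growth inhibition of SH-4 cells, read out with a cell viability assay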
Description: SANGER: Inhibition of human SH-4 cell growth in a cell viability assay.

SNB-75 = assay type: functional, cell-based, Homo sapiens; conditions: Homo sapiens, SNB-75;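 note: cell viability assay measuring growth inhibition of human SNB-75 cells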
Description: SANGER: Inhibition of human SNB75 cell growth in a cell viability assay.

SNU-C2B = assay type: functional, cell-based; conditions: Homo sapiens;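 note: cell viability readout used to measure compound-driven suppression of SNU-C2B cell proliferation, IC50 marking half-maximal growth inhibition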
Description: SANGER: Inhibition of human SNU-C2B cell growth in a cell viability assay.

SW 962 = assay type: functional, cell-based, Homo sapiens; conditions: Homo sapiens, SW 962;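 note: growth inhibition of human SW962 cells, read out by a cell viability assay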
Description: SANGER: Inhibition of human SW962 cell growth in a cell viability assay.

A4-Fuk = assay type: functional, cell-based, Homo sapiens; conditions: Homo sapiens, A4-Fuk;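 note: growth inhibition of A4-Fuk cells, read out by a cell viability assay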
Description: SANGER: Inhibition of human A4-Fuk cell growth in a cell viability assay.

U-266 = assay type: functional, cell-based, Homo sapiens; conditions: Homo sapiens, U-266
Description: SANGER: Inhibition of human U-266 cell growth in a cell viability assay.

UACC-257 = assay type: functional, cell-based, Homo sapiens; conditions: Homo sapiens, UACC-257
Description: SANGER: Inhibition of human UACC-257 cell growth in a cell viability assay.

no-11 = assay type: functional, cell-based, Homo sapiens; conditions: Homo sapiens;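 note: growth inhibition of human NO-11 cells, read out with a cell viability assay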
Description: SANGER: Inhibition of human no-11 cell growth in a cell viability assay.

COLO-668 = assay type: functional, cell-based, Homo sapiens; conditions: Homo sapiens, COLO-668
Description: SANGER: Inhibition of human COLO-668 cell growth in a cell viability assay.

COc1ccc(-c2cc3nccn3c(Nc3ncccc3C(N)=O)n2)cc1OC
IC50 (COLO-800): > 8 µM
IC50 (COR-L88): > 8 µM
IC50 (CTV-1): 1.5 µM
IC50 (D-502MG): > 8 µM
IC50 (EM-2): > 8 µM
IC50 (ETK-1): 5.21 µM
IC50 (EW-18): 4.58 µM
IC50 (GAK): > 8 µM
IC50 (GI-1): 5.41 µM
IC50 (GI-ME-N): > 8 µM
IC50 (HCC1187): > 8 µM
IC50 (HCE-4): 5.02 µM
IC50 (HCE-T): > 8 µM
IC50 (HDLM-2): > 8 µM
IC50 (IA-LM): 2.71 µM
IC50 (IST-SL1): 7.98 µM
IC50 (J-RT3-T3-5): 6.24 µM
IC50 (KG-1): 2.87 µM
IC50 (KGN): 1.54 µM
IC50 (KLE): > 8 µM
IC50 (KM12): 2.69 µM
IC50 (KU812 cell line): 4.24 µM
IC50 (KURAMOCHI): 7.41 µM
IC50 (KY821): > 8 µM
IC50 (LB2518-MEL): > 8 µM
IC50 (LXF-289 cell line): > 8 µM
IC50 (MMAC-SF): > 8 µM
IC50 (MN-60): > 8 µM
IC50 (MS-1): 7.7 µM
IC50 (MZ7-mel): > 8 µM
IC50 (NB5): > 8 µM
IC50 (NCI-H1355): 3.49 µM
IC50 (NCI-H226): 4.03 µM
IC50 (NCI-N87): > 8 µM
IC50 (NTERA-2-cl-D1): 1.96 µM
IC50 (OCI-AML2): 4.48 µM
IC50 (OCUB-M): 4.11 µM
IC50 (OVCAR-4): > 8 µM
IC50 (P31-FUJ): > 8 µM
IC50 (PC-3): > 8 µM
IC50 (QIMR-WIL): 0.582 µM
IC50 (RXF 393): 6.81 µM
IC50 (Ramos-2G6-4C10): 2.95 µM
IC50 (SH-4): > 8 µM
IC50 (SNB-75): > 8 µM
IC50 (SNU-C2B): 1.84 µM
IC50 (SW 962): > 8 µM
IC50 (A4-Fuk): 1.81 µM
IC50 (U-266): 4.71 µM
IC50 (UACC-257): > 8 µM
IC50 (no-11): > 8 µM
IC50 (COLO-668): > 8 µM

COC(=O)[C@H](CCSC)NC(=O)c1ccc(NC[C@@H](N)CS)cc1-c1ccccc1
IC50 (COLO-800): > 1.02 µM
IC50 (COR-L88): > 1.02 µM
IC50 (CTV-1): > 1.02 µM
IC50 (D-502MG): > 1.02 µM
IC50 (EM-2): > 1.02 µM
IC50 (ETK-1): > 1.02 µM
IC50 (EW-18): > 1.02 µM
IC50 (GAK): > 1.02 µM
IC50 (GI-1): > 1.02 µM
IC50 (GI-ME-N): > 1.02 µM
IC50 (HCC1187): > 1.02 µM
IC50 (HCE-4): > 1.02 µM
IC50 (HCE-T): > 1.02 µM
IC50 (HDLM-2): > 1.02 µM
IC50 (IA-LM): 0.955 µM
IC50 (IST-SL1): > 1.02 µM
IC50 (J-RT3-T3-5): > 1.02 µM
IC50 (KG-1): > 1.02 µM
IC50 (KGN): > 1.02 µM
IC50 (KLE): > 1.02 µM
IC50 (KM12): > 1.02 µM
IC50 (KU812 cell line): > 1.02 µM
IC50 (KURAMOCHI): > 1.02 µM
IC50 (KY821): > 1.02 µM
IC50 (LB2518-MEL): > 1.02 µM
IC50 (LXF-289 cell line): > 1.02 µM
IC50 (MMAC-SF): > 1.02 µM
IC50 (MN-60): > 1.02 µM
IC50 (MS-1): > 1.02 µM
IC50 (MZ7-mel): > 1.02 µM
IC50 (NB5): > 1.02 µM
IC50 (NCI-H1355): > 1.02 µM
IC50 (NCI-H226): > 1.02 µM
IC50 (NCI-N87): > 1.02 µM
IC50 (NTERA-2-cl-D1): > 1.02 µM
IC50 (OCI-AML2): > 1.02 µM
IC50 (OCUB-M): > 1.02 µM
IC50 (OVCAR-4): > 1.02 µM
IC50 (P31-FUJ): > 1.02 µM
IC50 (PC-3): > 1.02 µM
IC50 (QIMR-WIL): > 1.02 µM
IC50 (RXF 393): > 1.02 µM
IC50 (Ramos-2G6-4C10): > 1.02 µM
IC50 (SH-4): > 1.02 µM
IC50 (SNB-75): > 1.02 µM
IC50 (SNU-C2B): > 1.02 µM
IC50 (SW 962): > 1.02 µM
IC50 (A4-Fuk): > 1.02 µM
IC50 (U-266): > 1.02 µM
IC50 (UACC-257): > 1.02 µM
IC50 (no-11): > 1.02 µM
IC50 (COLO-668): > 1.02 µM
